# Test results taken from patent US8569007B2, “Method for reducing the appearance of false positive bands in SDS-page analysis of proteolytic digestion of a sample” (Merck Sharp & Dohme Corp., priority 2006, dated 2013).
# Test system: thiol-protease
# Conditions: 100 μM E-64; anti-IGF1R antibody substrate; overnight at room temperature; reducing SDS-PAGE (FIG. 5)
# Description: Gels containing 4-20% polyacryamide were used for reducing SDS-PAGE. Recipes for buffers were as follows: • 1.5M Tris pH 8.8: Dissolve 90.73 g Tris base in 400 ml DI H2O. pH to 8.8 with Hydrochloric Acid. Bring to volume of 500 ml with DI H2O, Store at 4° C. (This is one of the components used to make pH 8.8 Sample Buffer—below) • pH 8.8 Sample Buffer: Combine the following: 228 ml of DI H2O, 50 ml Glycerol, 50 ml 1.5M Tris pH 8.8, 50 ml 10% SDS solution, and 10 ml 0.05% Bromophenol Blue. Store at 4° C. • 2× Reducing Sample Buffer: Prepare 3% by volume 2-Mercaptoethanol in pH 8.8 Sample Buffer. Prepare fresh prior to use.
# The buffers were combined with the samples in equal volumes and allowed to sit overnight at room temperature before boiling. This increases the sensitivity of the assay for protease activity. The samples were then boiled directly before submitting for SDS-PAGE.
# E-64 was dissolved in DMSO and EDTA was dissolved in sterile distilled water. Samples were allowed to incubate overnight at room temperature. Samples were then combined in equal parts with anti-IGF1R drug substance to yield a final concentration of 0.5 mg/ml antibody. Reducing buffer was added in equal parts to the samples containing antibody. Following overnight incubation, these samples were then loaded onto gels for reducing SDS-PAGE for a final load of 10-12 μg of antibody. […]
smiles,measurement,value
"CC(C)C[C@H](NC(=O)[C@H]1O[C@@H]1C(=O)O)C(=O)NCCCCN=C(N)N (relative stereo) [E-64, trans-epoxy-succinyl-L-leucylamido-(4-guanidino)butane]",inhibition of active thiol-protease in 1615 CHO medium supplement,inhibited
